Activity calls are given as the source filed them. No cut-off for these calls is given here.
Legend:
[1] = molecular target: T1, Capsid scaffolding protein (Human herpesvirus 2 (strain HG52) (HHV-2) (Human herpes simplex virus2), UniProt P89449); assay: Inhibitory activity against herpes simplex virus type 2 (HSV-2) protease was determined using quenched fluorescence assay
T1 sequence (P89449 whole entry): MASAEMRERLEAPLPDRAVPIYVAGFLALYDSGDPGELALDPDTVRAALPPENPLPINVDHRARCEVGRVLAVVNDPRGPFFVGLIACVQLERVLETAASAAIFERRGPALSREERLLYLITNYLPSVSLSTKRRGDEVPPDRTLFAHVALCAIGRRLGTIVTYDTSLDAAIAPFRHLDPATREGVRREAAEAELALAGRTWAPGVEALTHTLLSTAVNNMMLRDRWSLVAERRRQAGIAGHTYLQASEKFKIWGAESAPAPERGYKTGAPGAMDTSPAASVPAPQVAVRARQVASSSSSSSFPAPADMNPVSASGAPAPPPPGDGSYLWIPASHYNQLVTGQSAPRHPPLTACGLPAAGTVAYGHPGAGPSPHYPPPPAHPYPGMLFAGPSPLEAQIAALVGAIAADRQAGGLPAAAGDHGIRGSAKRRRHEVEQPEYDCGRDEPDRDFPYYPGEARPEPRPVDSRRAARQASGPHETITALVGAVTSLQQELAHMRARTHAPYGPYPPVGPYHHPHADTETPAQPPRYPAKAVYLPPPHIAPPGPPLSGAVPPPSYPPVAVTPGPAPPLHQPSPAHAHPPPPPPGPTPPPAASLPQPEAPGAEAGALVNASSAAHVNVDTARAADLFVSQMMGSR

Human alphaherpesvirus 2 [2] = assay: Inactivation rate against herpes simplex type 2 (HSV-2) was determined; type: functional
Human alphaherpesvirus 3 = assay: Inactivation rate against Varicella Zoster Virus (VZV) was determined; type: functional
Cytomegalovirus [3] = assay: Inhibitory activity against cytomegalovirus (CMV) herpes was determined using quenched fluorescence assay; type: functional, organism-based; details: Human betaherpesvirus 5
Cytomegalovirus [4] = assay: Inhibitory activity against cytomegalovirus (CMV) protease was determined using quenched fluorescence assay (IA=inactive up to 20 uM); type: functional, organism-based
Human alphaherpesvirus 2 [5] = assay: Inhibitory activity against herpes simplex virus type 2 (HSV-2) protease was determined using quenched fluorescence assay (IA=inactive up to 20 uM); type: functional, organism-based
[6] = test system: Varicella zoster virus protease (Varicella-zoster virus); assay: Inhibitory activity against Varicella Zoster Virus (VZV) protease was determined using quenched fluorescence assay (IA=inactive up to 20 uM)
MRC5 = assay: Cytotoxicity by using MRC-5 cell culture assay (XTT); type: functional; details: Homo sapiens, read-out: TC50 (the source's name)
Human alphaherpesvirus 2 [7] = assay: Cytotoxicity in herpes simplex virus type 2 (HSV-2); NI= no inhibition; type: functional, organism-based
Human alphaherpesvirus 2 [8] = assay: Cytotoxicity against herpes simplex virus type 2 (HSV-2) infected cells by pulse chase (PC) assay; type: functional
Human alphaherpesvirus 2 [9] = assay: Cytotoxicity in herpes simplex virus type 2 (HSV-2); type: functional
Human alphaherpesvirus 2 [10] = assay: Cytotoxicity against herpes simplex virus type 2 (HSV-2); type: functional
Human alphaherpesvirus 2 [11] = assay: Inhibitory activity against herpes simplex virus type 2 (HSV-2) herpes protease was determined using quenched fluorescence assay; type: functional, organism-based
Cytomegalovirus [12] = assay: Inhibitory activity against cytomegalovirus (CMV) herpes protease was determined using quenched fluorescence assay; type: functional, organism-based; details: Human betaherpesvirus 5

`Cc1csc2nc([C@H](C)NC(=O)/C=C/c3cc(Br)cs3)oc(=O)c12` was tested, and the IC50 [1] was 190 nM.

`Cc1csc2nc([C@H](C)NC(=O)/C=C/c3ccnc4ccccc34)oc(=O)c12` was tested, and the IC50 [1] was 250 nM, the “K obs / 1” value (Human alphaherpesvirus 2 [2]) was 76000 M⁻¹ s⁻¹ and the “K obs / 1” value (Human alphaherpesvirus 3) was 45000 M⁻¹ s⁻¹.

`Cc1csc2nc([C@H](C)NC(=O)/C=C/c3c(Cl)cccc3Cl)oc(=O)c12` was tested, and the IC50 [1] was 1970 nM, the “K obs / 1” value (Human alphaherpesvirus 2 [2]) was 33000 M⁻¹ s⁻¹ and the “K obs / 1” value (Human alphaherpesvirus 3) was 33000 M⁻¹ s⁻¹.

With `Cc1csc2nc([C@H](C)NC(=O)/C=C/c3ccsc3)oc(=O)c12` the IC50 (Cytomegalovirus [3]) was 380 nM and the IC50 [1] was 330 nM.

For `Cc1ccsc1/C=C/C(=O)N[C@@H](C)c1nc2scc(C)c2c(=O)o1`, the IC50 [1] was 330 nM.

In the case of `Cc1csc2nc([C@H](C)NC(=O)/C=C/c3c(F)cccc3F)oc(=O)c12`, the IC50 [1] is reported as 630 nM.

In the case of `Cc1csc2nc([C@H](C)NC/C=C/c3ccccc3)oc(=O)c12`, the IC50 (Cytomegalovirus [4]) is reported as “No inhibition”, the IC50 (Human alphaherpesvirus 2 [5]) is reported as “No inhibition” and the IC50 [6] is reported as “No inhibition”.

For `Cc1csc2nc([C@H](C)NC(=O)/C=C/c3ccc(O)cc3Cl)oc(=O)c12`, the IC50 (Cytomegalovirus [3]) was 190 nM, the IC50 [1] was 230 nM and the CC50 (MRC5) was 100000 nM. The PC50 (Human alphaherpesvirus 2 [7]) was “inactive” and the TC50 (Human alphaherpesvirus 2 [8]) was 56000 nM.

Compound `CCOc1ccccc1/C=C/C(=O)N[C@@H](C)c1nc2scc(C)c2c(=O)o1` has an IC50 [1] of 560 nM.

`Cc1csc2nc([C@H](C)NC(=O)/C=C/c3ccc([N+](=O)[O-])cc3)oc(=O)c12` showed an IC50 [1] of 940 nM.

Compound `Cc1csc2nc([C@H](C)NC(=O)/C=C/c3cccc(Cl)c3)oc(=O)c12` has an IC50 [1] of 980 nM.

With `COc1cc(/C=C/C(=O)N[C@@H](C)c2nc3scc(C)c3c(=O)o2)cc(OC)c1` the IC50 [1] was 350 nM.

`Cc1csc2nc([C@H](C)NC(=O)/C=C(\c3ccccc3)c3cccs3)oc(=O)c12` showed an IC50 [1] of 260 nM.

For `COc1cccc(OC)c1/C=C/C(=O)N[C@@H](C)c1nc2scc(C)c2c(=O)o1`, the IC50 [1] was 1300 nM.

For `Cc1csc2nc([C@H](C)NC(=O)/C=C/c3ccc(Br)s3)oc(=O)c12`, the IC50 [1] was 270 nM, the CC50 (MRC5) was 83000 nM and the “K obs / 1” value (Human alphaherpesvirus 2 [2]) was 12000 M⁻¹ s⁻¹. The PC50 (Human alphaherpesvirus 2 [9]) was 8 µM, the TC50 (Human alphaherpesvirus 2 [8]) was greater than 250000 nM and the “K obs / 1” value (Human alphaherpesvirus 3) was 63000 M⁻¹ s⁻¹.

`Cc1csc2nc([C@H](C)NC(=O)/C=C/c3ccccc3)oc(=O)c12` was tested, and the IC50 [1] was 300 nM, the CC50 (MRC5) was 56000 nM and the “K obs / 1” value (Human alphaherpesvirus 2 [2]) was 65000 M⁻¹ s⁻¹. For the same compound, the PC50 (Human alphaherpesvirus 2 [10]) was 7.5 µM, the TC50 (Human alphaherpesvirus 2 [8]) was greater than 250000 nM and the “K obs / 1” value (Human alphaherpesvirus 3) was 44000 M⁻¹ s⁻¹.

Compound `Cc1csc2nc([C@H](C)NC(=O)/C=C/c3ccccc3[N+](=O)[O-])oc(=O)c12` has an IC50 [1] of 720 nM.

With `Cc1cc(/C=C/C(=O)N[C@@H](C)c2nc3scc(C)c3c(=O)o2)c(C)s1` the IC50 [1] was 190 nM, the CC50 (MRC5) was 180000 nM and the “K obs / 1” value (Human alphaherpesvirus 2 [2]) was 53000 M⁻¹ s⁻¹. For the same compound, the PC50 (Human alphaherpesvirus 2 [9]) was 12 µM, the TC50 (Human alphaherpesvirus 2 [8]) was 130000 nM and the “k obs / 1” value (Human alphaherpesvirus 3) was 76000 M⁻¹ s⁻¹.

For `Cc1csc2nc([C@H](C)NC(=O)/C=C/c3ccc(Br)o3)oc(=O)c12`, the IC50 [1] was 490 nM.

For `Cc1csc2nc([C@H](C)NC(=O)/C=C/c3ccc(N(C)C)cc3)oc(=O)c12`, the IC50 [1] was 570 nM.

`Cc1csc2nc([C@H](C)NC(=O)/C=C/c3cccn3C)oc(=O)c12` showed an IC50 [1] of 1000 nM.

Compound `Cc1csc2nc([C@H](C)NC(=O)/C=C/c3ccccc3Br)oc(=O)c12` has an IC50 [1] of 480 nM.

`Cc1csc2nc([C@H](C)NC(=O)C=C(c3ccccc3)c3ccccc3)oc(=O)c12` gave an IC50 [1] of 500 nM.

In the case of `Cc1csc2nc([C@H](C)NC(=O)/C=C/c3ccsc3Br)oc(=O)c12`, the IC50 [1] is reported as 200 nM.

`Cc1csc2nc([C@H](C)NC(=O)/C=C/c3ccccc3Cl)oc(=O)c12` was tested, and the IC50 [1] was 610 nM.

With `Cc1csc2nc([C@H](C)NC(=O)C=C(c3cccs3)c3cccs3)oc(=O)c12` the IC50 [1] was 110 nM, the CC50 (MRC5) was 95000 nM and the “K obs / 1” value (Human alphaherpesvirus 2 [2]) was 120000 M⁻¹ s⁻¹. The PC50 (Human alphaherpesvirus 2 [7]) was “inactive” and the TC50 (Human alphaherpesvirus 2 [8]) was 21000 nM.

In the case of `Cc1csc2nc([C@H](C)NC(=O)/C=C/c3ccccn3)oc(=O)c12`, the IC50 [1] is reported as 500 nM.

In the case of `Cc1csc2nc([C@H](C)NC(=O)/C=C(\Sc3ccccc3)c3ccccc3)oc(=O)c12`, the IC50 (Human alphaherpesvirus 2 [11]) is reported as 3100 nM and the IC50 (Cytomegalovirus [12]) is reported as 1900 nM.

In the case of `Cc1csc2nc([C@H](C)NC(=O)/C=C/c3c(F)cccc3Cl)oc(=O)c12`, the IC50 [1] is reported as 520 nM.

In the case of `Cc1csc2nc([C@H](C)NC(=O)/C=C/c3ccc(Cl)s3)oc(=O)c12`, the IC50 [1] is reported as 210 nM, the CC50 (MRC5) is reported as 130000 nM and the “K obs / 1” value (Human alphaherpesvirus 2 [2]) is reported as 58000 M⁻¹ s⁻¹. The PC50 (Human alphaherpesvirus 2 [9]) was 18 µM, the TC50 (Human alphaherpesvirus 2 [8]) was greater than 250000 nM and the “K obs / 1” value (Human alphaherpesvirus 3) was 60000 M⁻¹ s⁻¹.

`Cc1csc2nc([C@H](C)NC(=O)/C=C/c3ccc([N+](=O)[O-])s3)oc(=O)c12` gave an IC50 [1] of 570 nM.

Compound `Cc1csc2nc([C@H](C)NC(=O)/C=C/c3sccc3Br)oc(=O)c12` has an IC50 [1] of 250 nM.

Compound `Cc1ccc(/C=C/C(=O)N[C@@H](C)c2nc3scc(C)c3c(=O)o2)s1` has an IC50 [1] of 650 nM.

`Cc1csc2nc([C@H](C)NC(=O)/C=C/c3ccc(C=O)cc3)oc(=O)c12` showed an IC50 [1] of 530 nM.

`Cc1ccccc1/C=C/C(=O)N[C@@H](C)c1nc2scc(C)c2c(=O)o1` gave an IC50 (Cytomegalovirus [3]) of 20000 nM and an IC50 [1] of 1500 nM.

— ChEMBL document CHEMBL1132395, “Inhibition of herpes proteases and antiviral activity of 2-substituted thieno[2,3-d]oxazinones” (Bioorg Med Chem Lett, 1999)
